Source: patent US20260200919A1, “SUBSTITUTED AMINOPYRIDINE COMPOUNDS AND METHODS OF TREATING DISEASE USING SAME” (Atavistik Bio, Inc., priority 2023, published 2026)
pIC50: −log10 of the molar value.

Assays:
[1] = biological target: T1, human recombinant kinase full-length AKT1 E17K (Homo sapiens, UniProt P31749, E17K); assay: AKT1 E17K kinase assay (TR-FRET, Lance); assay type: biochemical; conditions: 0.6 nM AKT1 E17K, 50 nM Ulight-CREBtide, either 50 μM ATP or 2 mM ATP (not specified which), 60 min at RT
T1 construct: Purified human recombinant kinase full-length AKT1 E17K was expressed in insect cells; made in house; host or cells: insect cells
Procedure, shortened: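 Full-length human AKT1 E17K (insect cell-expressed, PDPK1-activated; 0.6 nM) with 50 nM ULight-CREBtide in HEPES pH 7.5 with MgCl2 and DTT. ATP at 50 μM or 2 mM, 1% DMSO, 10-point dose response, 60 min at RT.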

[2] = biological target: T2, human recombinant kinase full-length wildtype AKT1 (Homo sapiens, UniProt P31749); assay: AKT1 kinase assay (wildtype, TR-FRET, Lance); assay type: biochemical; conditions: 0.6 nM wildtype AKT1, 50 nM Ulight-CREBtide, either 50 μM ATP or 2 mM ATP (not specified which), 60 min at RT
T2 construct: Purified human recombinant kinase full-length wildtype AKT1 was expressed in insect cells; made in house; host or cells: insect cells
Procedure, shortened: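 Insect-cell-expressed AKT1, activated in vitro by PDPK1, was used at 0.6 nM with 50 nM Ulight-CREBtide and 50 μM or 2 mM ATP in 50 mM HEPES pH 7.5, 1% DMSO, over a 10-point dose response.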

T2 sequence (P31749 whole entry): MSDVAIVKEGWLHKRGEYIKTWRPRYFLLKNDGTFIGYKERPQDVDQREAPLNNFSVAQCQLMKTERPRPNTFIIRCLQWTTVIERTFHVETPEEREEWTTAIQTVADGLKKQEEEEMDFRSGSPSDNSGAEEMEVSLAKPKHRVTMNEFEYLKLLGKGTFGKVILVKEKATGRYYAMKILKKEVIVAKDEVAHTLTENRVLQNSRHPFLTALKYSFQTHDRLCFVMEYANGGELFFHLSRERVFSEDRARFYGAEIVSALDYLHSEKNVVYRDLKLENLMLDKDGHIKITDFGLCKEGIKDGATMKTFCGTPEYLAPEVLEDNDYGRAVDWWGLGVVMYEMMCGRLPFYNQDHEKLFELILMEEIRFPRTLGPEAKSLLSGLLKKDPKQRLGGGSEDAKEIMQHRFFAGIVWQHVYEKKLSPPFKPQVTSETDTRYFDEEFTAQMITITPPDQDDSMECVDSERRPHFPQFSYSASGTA
T1 sequence (P31749 whole entry E17K): as the sequence (P31749 whole entry) above, with E17K counted along it

SMILES: Cc1cc(NC(=O)c2ccc(-n3c(-c4cccnc4N)nc4ccc(-c5ccccc5)nc43)cn2)ccc1C(=O)O [Compound 177, 4-(5-(2-(2-aminopyridin-3-yl)-5-phenyl-3H-imidazo[4,5-b]pyridin-3-yl)picolinamido)-2-methylbenzoic acid]
- pIC50 [1]: 6.30 to 6.70
- pIC50 [2]: > 6.30

SMILES: COc1ccc2nc(-c3cccnc3N)n(-c3ccc(CNC(=O)c4cccc(CC(=O)O)c4)cc3)c2c1 [Compound 104, 2-(3-((4-(2-(2-aminopyridin-3-yl)-6-methoxy-1H-benzo[d]imidazol-1-yl)benzyl)carbamoyl)phenyl) acetic acid]
- pIC50 [1]: < 6.30
- pIC50 [2]: < 6.30

SMILES: Nc1ncccc1-c1nc2ccc(-c3ccccc3)nc2n1-c1ccc(C(=O)NCc2cccc(CC(=O)O)c2)cc1 [Compound 52, 2-(3-((4-(2-(2-aminopyridin-3-yl)-5-phenyl-3H-imidazo[4,5-b]pyridin-3-yl)benzamido)methyl)phenyl)acetic acid]
- pIC50 [1]: < 6.30
- pIC50 [2]: < 6.30

SMILES: Nc1ncccc1-c1nc2ccc(-c3ccccc3)nc2n1-c1ccc(C(=O)Nc2ccc(C(=O)O)cc2F)nc1 [Compound 179, 4-(5-(2-(2-aminopyridin-3-yl)-5-phenyl-3H-imidazo[4,5-b]pyridin-3-yl)picolinamido)-3-fluorobenzoic acid]
- pIC50 [1]: 6.30 to 6.70
- pIC50 [2]: > 6.30

SMILES: Cc1cc(C(=O)Nc2ccc(-n3c(-c4cccnc4N)nc4ccc(-c5ccccc5)nc43)cn2)ccc1C(=O)O [Compound 118, 4-((5-(2-(2-aminopyridin-3-yl)-5-phenyl-3H-imidazo[4,5-b]pyridin-3-yl)pyridin-2-yl)carbamoyl)-2-methylbenzoic acid]
- pIC50 [1]: > 7.30
- pIC50 [2]: > 6.30

SMILES: Nc1ncccc1-c1nc2ccc(-c3ccccc3)nc2n1-c1ccc(C2CN(C(=O)c3cccc(C(=O)O)c3F)C2)cc1 [Compound 78, 3-(3-(4-(2-(2-aminopyridin-3-yl)-5-phenyl-3H-imidazo[4,5-b]pyridin-3-yl)phenyl)azetidine-1-carbonyl)-2-fluorobenzoic acid]
- pIC50 [1]: 6.70 to 7.30
- pIC50 [2]: > 6.30

SMILES: Cc1cc(C(=O)Nc2ccc(-n3c(-c4cccnc4N)nc4ccc(-c5ccccc5)nc43)cn2)c(F)cc1C(=O)O [Compound 145]
- pIC50 [1]: 6.70 to 7.30
- pIC50 [2]: > 6.30

SMILES: CC(c1ccc(C(=O)O)cc1)N1CC(c2ccc(-n3c(-c4cccnc4N)nc4ccc(-c5ccccc5)nc43)cc2F)C1 (stereo not drawn) [Compound 166, 4-(1-(3-(4-(2-(2-aminopyridin-3-yl)-5-phenyl-3H-imidazo[4,5-b]pyridin-3-yl)-2-fluorophenyl)azetidin-1-yl)ethyl)benzoic acid]
- pIC50 [1]: 6.30 to 6.70
- pIC50 [2]: > 6.30

SMILES: Cc1c(C(=O)O)cccc1C(=O)N1CC(c2ccc(-n3c(-c4cccnc4N)nc4ccc(-c5ccccc5)nc43)cc2)C1 [Compound 77, 3-(3-(4-(2-(2-aminopyridin-3-yl)-5-phenyl-3H-imidazo[4,5-b]pyridin-3-yl)phenyl)azetidine-1-carbonyl)-2-methylbenzoic acid]
- pIC50 [1]: 6.70 to 7.30
- pIC50 [2]: > 6.30

SMILES: C[C@H](c1ccc(C(=O)O)cc1C(F)(F)F)N1CC(c2ccc(-n3c(-c4cccnc4N)nc4ccc(-c5ccccc5)nc43)cc2)C1 [Compound 165]
- pIC50 [1]: 6.70 to 7.30
- pIC50 [2]: > 6.30

SMILES: COC(=O)c1cccc(C(=O)N2CC(c3ccc(-n4c(-c5cccnc5N)nc5ccc(-c6ccccc6)nc54)cc3)C2)c1 [Compound 71, methyl 3-(3-(4-(2-(2-aminopyridin-3-yl)-5-phenyl-3H-imidazo[4,5-b]pyridin-3-yl)phenyl)azetidine-1-carbonyl)benzoate]
- pIC50 [1]: 6.70 to 7.30
- pIC50 [2]: > 6.30

SMILES: Nc1ncccc1-c1nc2ccc(-c3ccccc3)nc2n1-c1ccc(CNC(=O)c2cccc(CC(=O)O)c2)cn1 [Compound 49, 2-(3-(((6-(2-(2-aminopyridin-3-yl)-5-phenyl-3H-imidazo[4,5-b]pyridin-3-yl)pyridin-3-yl)methyl)carbamoyl)phenyl)acetic acid]
- pIC50 [1]: < 6.30
- pIC50 [2]: < 6.30

SMILES: Cc1cc(C(=O)O)ccc1C(=O)Nc1ccc(-n2c(-c3cccnc3N)nc3ccc(-c4ccccc4)nc32)cc1F [Compound 66, 4-((4-(2-(2-aminopyridin-3-yl)-5-phenyl-3H-imidazo[4,5-b]pyridin-3-yl)-2-fluorophenyl)carbamoyl)-3-methylbenzoic acid]
- pIC50 [1]: 6.30 to 6.70
- pIC50 [2]: < 6.30

SMILES: Cc1cc(C(=O)Nc2ccc(-n3c(-c4cccnc4N)nc4ccc(-c5ccccc5)nc43)nc2C)ccc1C(=O)O [Compound 181, 4-((6-(2-(2-aminopyridin-3-yl)-5-phenyl-3H-imidazo[4,5-b]pyridin-3-yl)-2-methylpyridin-3-yl)carbamoyl)-2-methylbenzoic acid]
- pIC50 [1]: < 6.30
- pIC50 [2]: < 6.30

SMILES: CC(c1ccc(C(=O)O)cc1)N1CC(c2ccc(-n3c(-c4cccnc4N)nc4ccc(-c5ccccc5)nc43)cn2)C1 (stereo not drawn) [Compound 167, 4-(1-(3-(5-(2-(2-aminopyridin-3-yl)-5-phenyl-3H-imidazo[4,5-b]pyridin-3-yl)pyridin-2-yl)azetidin-1-yl)ethyl)benzoic acid]
- pIC50 [1]: < 6.30
- pIC50 [2]: > 6.30

SMILES: CC(c1ccc(C(=O)O)cc1)N1CCC(c2ccc(-n3c(-c4cccnc4N)nc4ccc(-c5ccccc5)nc43)cc2)C1 (stereo not drawn) [Compound 171, 4-(1-(3-(4-(2-(2-aminopyridin-3-yl)-5-phenyl-3H-imidazo[4,5-b]pyridin-3-yl)phenyl)pyrrolidin-1-yl)ethyl)benzoic acid]
- pIC50 [1]: 6.30 to 6.70
- pIC50 [2]: > 6.30

SMILES: Cc1nc(NC(=O)c2ccc(C(=O)O)cc2)ccc1-n1c(-c2cccnc2N)nc2ccc(-c3ccccc3)cc21 [Compound 182, 4-((5-(2-(2-aminopyridin-3-yl)-6-phenyl-1H-benzo[d]imidazol-1-yl)-6-methylpyridin-2-yl)carbamoyl)benzoic acid]
- pIC50 [1]: < 6.30
- pIC50 [2]: > 6.30

SMILES: CC(C(=O)O)c1ccc(C(=O)NCc2ccc(-n3c(-c4cccnc4N)nc4ccc(-c5ccccc5)nc43)cc2)cc1 (stereo not drawn) [Compound 35, 2-(4-((4-(2-(2-aminopyridin-3-yl)-5-phenyl-3H-imidazo[4,5-b]pyridin-3-yl)benzyl)carbamoyl)phenyl) propanoic acid]
- pIC50 [1]: > 7.30
- pIC50 [2]: > 6.30

SMILES: CC(C(=O)O)c1cccc(C(=O)NCc2ccc(-n3c(-c4cccnc4N)nc4ccc(-c5ccccc5)nc43)cc2)c1F (stereo not drawn) [Compound 37, 2-(3-((4-(2-(2-aminopyridin-3-yl)-5-phenyl-3H-imidazo[4,5-b]pyridin-3-yl)benzyl)carbamoyl)-2-fluorophenyl) propanoic acid]
- pIC50 [1]: 6.30 to 6.70
- pIC50 [2]: > 6.30

SMILES: COC(=O)c1ccc(C(=O)N2CC(c3ccc(-n4c(-c5cccnc5N)nc5ccc(-c6ccccc6)nc54)cc3)C2)cc1 [Compound 69, methyl 4-(3-(4-(2-(2-aminopyridin-3-yl)-5-phenyl-3H-imidazo[4,5-b]pyridin-3-yl)phenyl)azetidine-1-carbonyl)benzoate]
- pIC50 [1]: < 6.30
- pIC50 [2]: > 6.30

SMILES: Nc1ncccc1-c1nc2ccc(-c3ccccc3)nc2n1-c1ccc(C2CN(Cc3cccc(CC(=O)O)c3)C2)cc1 [Compound 79, 2-(3-((3-(4-(2-(2-aminopyridin-3-yl)-5-phenyl-3H-imidazo[4,5-b]pyridin-3-yl)phenyl)azetidin-1-yl)methyl)phenyl) acetic acid]
- pIC50 [1]: 6.30 to 6.70
- pIC50 [2]: > 6.30

SMILES: Nc1ncccc1-c1nc2ccc(-c3ccccc3)nc2n1-c1ccc(CNC(=O)c2cccc(CC(=O)O)c2)cc1 [Compound 32, 2-(3-((4-(2-(2-aminopyridin-3-yl)-5-phenyl-3H-imidazo[4,5-b]pyridin-3-yl)benzyl)carbamoyl)phenyl)acetic acid]
- pIC50 [1]: 6.70 to 7.30
- pIC50 [2]: > 6.30

SMILES: Nc1ncccc1-c1nc2cc(-c3cccnc3)cnc2n1-c1ccc(CNC(=O)c2ccc(CCC(=O)O)cc2)cc1 [Compound 92, 3-(4-((4-(2-(2-aminopyridin-3-yl)-6-(pyridin-3-yl)-3H-imidazo[4,5-b]pyridin-3-yl)benzyl)carbamoyl)phenyl) propanoic acid]
- pIC50 [1]: 6.30 to 6.70
- pIC50 [2]: > 6.30

SMILES: Nc1ncccc1-c1nc2ccccc2n1-c1ccc(CNC(=O)c2cccc(CC(=O)O)c2)cc1 [Compound 108, 2-(3-((4-(2-(2-aminopyridin-3-yl)-1H-benzo[d]imidazol-1-yl)benzyl)carbamoyl)phenyl) acetic acid]
- pIC50 [1]: < 6.30
- pIC50 [2]: < 6.30

SMILES: COC(=O)CCc1ccc(C(=O)NCc2ccc(-n3c(-c4cccnc4N)nc4cc(-c5cccnc5)cnc43)cc2)cc1 [Compound 91, methyl 3-(4-((4-(2-(2-aminopyridin-3-yl)-6-(pyridin-3-yl)-3H-imidazo[4,5-b]pyridin-3-yl)benzyl)carbamoyl)phenyl) propanoate]
- pIC50 [1]: < 6.30
- pIC50 [2]: > 6.30

SMILES: CC(c1ccc(C(=O)O)c(F)c1)N1CC(c2ccc(-n3c(-c4cccnc4N)nc4ccc(-c5ccccc5)nc43)cc2)C1 (stereo not drawn) [Compound 163]
- pIC50 [1]: 6.70 to 7.30
- pIC50 [2]: > 6.30

SMILES: Nc1ncccc1-c1nc2ccc(-c3ccccc3)nc2n1-c1ccc(C2CN(C(=O)c3ccccc3C(=O)O)C2)cc1 [Compound 74, 2-(3-(4-(2-(2-aminopyridin-3-yl)-5-phenyl-3H-imidazo[4,5-b]pyridin-3-yl)phenyl)azetidine-1-carbonyl)benzoic acid]
- pIC50 [1]: < 6.30
- pIC50 [2]: < 6.30
